Reference: patent publication US11155560B2, “Substituted pyrazolo[1,5-a]pyrimidines for modulating CDK9 activity” (Kronos Bio, Inc., priority 2018, dated 2021)

Target: CDK9/cyclin T1 (Homo sapiens, UniProt P50750)
Assay: CDK9/cyclin T1 kinase inhibition, LANCE assay
Format: biochemical
Conditions: reaction time 60 minutes, 10 μM ATP, 10-dose IC50, compounds 35-126 (127-208 listed, method not stated), read-out: CDK9/cyclin T1 Potency Grade
Method: Exemplary compounds of the invention (35-126) were tested for inhibition of CDK9/cyclin T1 kinase. Using a LANCE assay (reaction time 60 minutes), the compounds were tested in 10-dose IC50 duplicate mode with a 3-fold serial dilution starting at 4.3 μM. […] Reactions were carried out at 10 μM ATP. Data was normalized to positive and negative controls and curve fits were analyzed with XLFIT5 as % inhibition vs. log [compound concentration] using a 4-parameter logistic model205. Fit=(A+((B−A)/(1+((C/x)^D)))); Res =(y-fit).

CDK9/cyclin T1, sequence (P50750 whole entry): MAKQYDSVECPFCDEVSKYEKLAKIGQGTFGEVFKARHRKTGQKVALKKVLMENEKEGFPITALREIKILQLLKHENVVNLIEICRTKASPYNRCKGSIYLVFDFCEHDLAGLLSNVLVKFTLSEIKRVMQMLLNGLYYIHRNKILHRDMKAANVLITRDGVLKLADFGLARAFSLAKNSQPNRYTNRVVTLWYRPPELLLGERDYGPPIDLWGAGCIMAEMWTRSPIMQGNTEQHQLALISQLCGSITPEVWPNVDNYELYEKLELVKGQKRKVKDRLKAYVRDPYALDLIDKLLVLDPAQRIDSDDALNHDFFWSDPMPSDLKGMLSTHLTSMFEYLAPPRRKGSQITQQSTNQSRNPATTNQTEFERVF
CDK9/cyclin T1, sequence (O60563 whole entry partner): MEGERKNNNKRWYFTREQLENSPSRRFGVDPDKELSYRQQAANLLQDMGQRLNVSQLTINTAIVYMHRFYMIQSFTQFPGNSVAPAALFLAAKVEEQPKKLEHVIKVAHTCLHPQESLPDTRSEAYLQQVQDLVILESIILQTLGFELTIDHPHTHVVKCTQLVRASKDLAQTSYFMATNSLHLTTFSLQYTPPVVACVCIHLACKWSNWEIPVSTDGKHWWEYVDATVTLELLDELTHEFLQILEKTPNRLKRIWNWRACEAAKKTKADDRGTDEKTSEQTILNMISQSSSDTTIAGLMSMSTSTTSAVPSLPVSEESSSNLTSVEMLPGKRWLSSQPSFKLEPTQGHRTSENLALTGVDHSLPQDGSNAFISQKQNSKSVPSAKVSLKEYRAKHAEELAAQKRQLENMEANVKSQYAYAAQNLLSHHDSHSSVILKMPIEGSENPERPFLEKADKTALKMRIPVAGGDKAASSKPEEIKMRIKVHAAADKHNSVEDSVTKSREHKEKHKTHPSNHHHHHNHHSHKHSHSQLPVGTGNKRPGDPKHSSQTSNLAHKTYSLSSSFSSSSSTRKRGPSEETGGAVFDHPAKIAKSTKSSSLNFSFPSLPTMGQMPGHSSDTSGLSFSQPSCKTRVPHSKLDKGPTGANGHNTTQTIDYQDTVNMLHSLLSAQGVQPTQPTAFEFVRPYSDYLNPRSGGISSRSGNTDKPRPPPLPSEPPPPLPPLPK

Row | SMILES | IC50 [nM]
1 | N[C@H]1CC[C@H](Nc2cc(N3CCOCC3)nc3ccnn23)C1 [Compound 163] | 1 to 500
2 | COC(=O)N[C@H]1CC[C@H](Nc2cc(C3CC3)nc3ccnn23)C1 [Compound 89] | > 1000
3 | CC(C)c1cc(N[C@@H]2CCN(C)C2)n2nccc2n1 [Compound 135] | > 1000
4 | N[C@H]1CC[C@H](Nc2cc(C3CCC(F)(F)CC3)nc3ccnn23)C1 [Compound 125] | 1 to 500
5 | CC1(C)CC1c1cc(N[C@H]2CC[C@H](N)C2)n2nccc2n1 (some centres unmarked) [Compound 117] | 1 to 500
6 | Cc1cnn2c(N[C@@H]3CC[C@@H](NC(=O)OCc4ccccc4)C3)cc(C(C)C)nc12 [Compound 178] | 1 to 500
7 | N[C@@H]1CC[C@@H](Nc2cc(C3CC3)nc3ccnn23)C1 [Compound 134] | 1 to 500
8 | CC(C)c1cc(N[C@@H]2CC[C@@H](NC(=O)OCc3ccccc3)C2)n2nccc2n1 [Compound 50] | 1 to 500
9 | N[C@H]1CC[C@H](Nc2cc(-c3ccc4ccccc4c3)nc3ccnn23)C1 [Compound 160] | 501 to 1000
10 | CCC(C)c1cc(N[C@@H]2CC[C@@H](NC=O)C2)n2nccc2n1 (some centres unmarked) [Compound 52] | 1 to 500
11 | N[C@@H]1CC[C@@H](Nc2cc(C3CC3)nc3ccnn23)C1 [Compound 43] | 1 to 500
12 | CC1(c2cc(N[C@H]3CC[C@H](N)C3)n3nccc3n2)CC1 [Compound 123] | 1 to 500
13 | COCCN[C@@H]1CC[C@@H](Nc2cc(C(C)C)nc3ccnn23)C1 [Compound 59] | 1 to 500
14 | N[C@@H]1CC[C@@H](Nc2cc(C3CCC3)nc3ccnn23)C1 [Compound 42] | 1 to 500
15 | N[C@H]1CC[C@H](Nc2cc(C#CC3CC3)nc3ccnn23)C1 [Compound 120] | 1 to 500
16 | CCC(CC)c1cc(N[C@H]2CC[C@H](NC(=O)c3cnc(C)cn3)C2)n2nccc2n1 [Compound 148] | 1 to 500
17 | Cc1cnn2c(N[C@H]3CC[C@H](N)C3)cc(CC(C)C)nc12 [Compound 184] | 1 to 500

Further lines, results first:

Row | IC50 [nM] | SMILES
18 | 1 to 500 | N[C@H]1CC[C@H](Nc2cc(N3CCCCC3)nc3ccnn23)C1 [Compound 156]
19 | 501 to 1000 | N[C@H]1CC[C@H](Nc2cc(C3=CCOCC3)nc3ccnn23)C1 [Compound 110]
20 | 1 to 500 | CCNc1cc(N[C@H]2CC[C@H](N)C2)n2nccc2n1 [Compound 98]
21 | 1 to 500 | CC(C)OC(=O)N[C@@H]1CC[C@@H](Nc2cc(C(C)C)nc3ccnn23)C1 [Compound 140]
22 | 1 to 500 | N[C@H]1CC[C@H](Nc2cc(C#CC3CCCCC3)nc3ccnn23)C1 [Compound 119]
23 | 1 to 500 | Cc1cnn2c(N[C@@H]3CC[C@@H](NC(=O)OCc4ccccc4)C3)cc(C(C)C)nc12 [Compound 87]
24 | 501 to 1000 | N[C@H]1CC[C@H](Nc2cc(C3=CCOC3)nc3ccnn23)C1 [Compound 126]
25 | 1 to 500 | N[C@H]1CC[C@H](Nc2cc(Nc3ccc4ccccc4c3)nc3ccnn23)C1 [Compound 162]
26 | > 1000 | COC(=O)N[C@H]1CC[C@H](Nc2cc(C3CC3)nc3ccnn23)C1 [Compound 180]
27 | 1 to 500 | N[C@H]1CC[C@H](Nc2cc(-c3ccc4c(c3)OCO4)nc3ccnn23)C1 [Compound 152]
28 | 1 to 500 | Cn1cncc1-c1cc(N[C@H]2CC[C@H](N)C2)n2nccc2n1 [Compound 174]
29 | 1 to 500 | CN1CCN(c2cc(N[C@H]3CC[C@H](N)C3)n3nccc3n2)CC1=O [Compound 102]
30 | 1 to 500 | Cc1cnn2c(N[C@@H]3CC[C@@H](NC(=O)OC(C)C)C3)cc(C(C)C)nc12 [Compound 85]
31 | 1 to 500 | CC1(C)CC1c1cc(N[C@H]2CC[C@H](N)C2)n2nccc2n1 (some centres unmarked) [Compound 208]
32 | 1 to 500 | COc1cc(C)cc(-c2cc(N[C@H]3CC[C@H](N)C3)n3nccc3n2)c1 [Compound 161]
33 | 1 to 500 | N[C@H]1CC[C@H](Nc2cc(C#Cc3ccccc3)nc3ccnn23)C1 [Compound 118]
34 | 1 to 500 | CCC(CC)c1cc(N[C@H]2CC[C@H](N(C)CCOC)C2)n2nccc2n1 [Compound 62]
35 | 1 to 500 | CCc1cc(N[C@H]2CC[C@H](N)C2)n2nccc2n1 [Compound 138]
